Measured values published in patent US20250129070A1, “BIFUNCTIONAL ANDROGEN RECEPTOR COMPOUNDS” (priority 2023, published 2025).

How the values were obtained:
[1] = test system: AR / CBP ternary complex; assay: Ternary complex formation assay (sandwich ELISA, AR capture / CBP detection) in VCaP cell lysates; type: cell-based; details: 1.5 hours treatment, sandwich ELISA (AR capture, CBP or p300 detection)
Method in brief: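 Anti-AR (AR 441)-coated plates capture AR from lysates of VCaP cells grown ≥3 days at 50K/well in 5% charcoal-stripped FBS, dosed with bifunctional for 1.5 h and lysed 30 min at 4 °C. Co-captured CBP/p300 is probed with rabbit mAb and HRP anti-rabbit, then QuantaRed fluorescence (570/585) is read at 0, 5 and 15 min.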

[2] = test system: VCaP cells; assay: VCaP growth inhibition assay; type: cell-based; details: 30 pM R1881, 9 days, CTG
Method in brief: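 Growth read by CTG luminescence after 9-day exposure to compound (final 100 nM–10 fM, 1:5 steps) plus 30 pM R1881, in phenol red-free DMEM with 5% CSS. Cells pre-incubated 72 h before dosing; IC50 by nonlinear 4-parameter regression.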

Row | EC50 [1] [nM] | IC50 [2] [nM] | SMILES
1 | 1 to 10 | 1 to 100 | COc1cc(OC2C(C)(C)C(NC(=O)c3ccc(N4CCC(C5CCN(c6ccc(-c7cc8cccc(-c9nn(C%10CCOCC%10)c%10c9CN(C(C)=O)CC%10)c8cn7)cn6)CC5)CC4)cc3)C2(C)C)ccc1C#N (centres unmarked) [Compound 267, 4-[4-[1-[5-[8-(5-acetyl-1-tetrahydropyran-4-yl-6,7-dihydro-4H-pyrazolo[4,3-c]pyridin-3-yl)-3-isoquinolyl]-2-pyridyl]-4-piperidyl]-1-piperidyl]-N-[3-(4-cyano-3-methoxy-phenoxy)-2,2,4,4-tetramethyl-cyclobutyl]benzamide]
2 | < 1 | 0.1 to 1 | COc1cc(OC2C(C)(C)C(NC(=O)c3ccc(N4CCC(CCc5ccc(-c6cc7c(cc6C(F)F)N(c6nn(C8CCOCC8)c8c6CN(C(C)=O)CC8)CCC7)cc5)CC4)cc3)C2(C)C)ccc1C#N (centres unmarked) [Compound 248, 4-[4-[2-[4-[1-(5-acetyl-1-tetrahydropyran-4-yl-6,7-dihydro-4H-pyrazolo[4,3-c]pyridin-3-yl)-7-(difluoromethyl)-3,4-dihydro-2H-quinolin-6-yl]phenyl]ethyl]-1-piperidyl]-N-[3-(4-cyano-3-methoxy-phenoxy)-2,2,4,4-tetramethyl-cyclobutyl]benzamide]
3 | < 1 | 0.1 to 1 | CC(=O)N1CCc2c(c(N3CCCc4cc(-c5cnn(C)c5)c(C(F)F)cc43)nn2C2CCN(CC#Cc3ncc(C(=O)NC4C(C)(C)C(Oc5ccc(C#N)c(Cl)c5)C4(C)C)cn3)CC2)C1 (centres unmarked) [Compound 19, 2-[3-[4-[5-acetyl-3-[7-(difluoromethyl)-6-(1-methylpyrazol-4-yl)-3,4-dihydro-2H-quinolin-1-yl]-6,7-dihydro-4H-pyrazolo[4,3-c]pyridin-1-yl]-1-piperidyl]prop-1-ynyl]-N-[3-(3-chloro-4-cyano-phenoxy)-2,2,4,4-tetramethyl-cyclobutyl]pyrimidine-5-carboxamide]
4 | < 1 | 0.1 to 1 | CC(=O)N1CCc2c(c(N3CCCc4cc(-c5cnn(C)c5)c(C(F)F)cc43)nn2C2CCC(OC3CN(c4ncc(C(=O)NC5C(C)(C)C(Oc6ccc(C#N)c(Cl)c6)C5(C)C)cn4)C3)CC2)C1 (centres unmarked) [Compound 341]
5 | 1 to 10 | 1 to 100 | CN1C(=O)CCc2cc(N3CCCc4cc(-c5ccc(CCC6CCN(c7ncc(C(=O)NC8C(C)(C)C(Oc9ccc(C#N)c(Cl)c9)C8(C)C)cn7)CC6)nc5)ncc43)ccc21 (centres unmarked) [Compound 240, N-[3-(3-chloro-4-cyano-phenoxy)-2,2,4,4-tetramethyl-cyclobutyl]-2-[4-[2-[5-[1-(1-methyl-2-oxo-3,4-dihydroquinolin-6-yl)-3,4-dihydro-2H-1,7-naphthyridin-6-yl]-2-pyridyl]ethyl]-1-piperidyl]pyrimidine-5-carboxamide]
6 | < 1 | ≤ 0.1 | COc1cc(OC2C(C)(C)C(NC(=O)c3ccc(N4CCN(C5CN(c6ccc(-c7cc8c(cn7)N(c7nn(C9CCOCC9)c9c7CN(C(C)=O)CC9)CCC8)cn6)C5)CC4)cc3)C2(C)C)ccc1C#N (centres unmarked) [Compound 324, 4-[4-[1-[5-[1-(5-acetyl-1-tetrahydropyran-4-yl-6,7-dihydro-4H-pyrazolo[4,3-c]pyridin-3-yl)-3,4-dihydro-2H-1,7-naphthyridin-6-yl]-2-pyridyl]azetidin-3-yl]piperazin-1-yl]-N-[3-(4-cyano-3-methoxy-phenoxy)-2,2,4,4-tetramethyl-cyclobutyl]benzamide]
7 | 1 to 10 | ≤ 0.1 | CC(=O)N1CCc2c(c(N3CCCc4ccccc43)nn2C2CCN(CC3CCN(c4ncc(C(=O)NC5C(C)(C)C(Oc6ccc(C#N)c(Cl)c6)C5(C)C)cn4)CC3)CC2)C1 (centres unmarked) [Compound 158, 2-[4-[[4-[5-acetyl-3-(3,4-dihydro-2H-quinolin-1-yl)-6,7-dihydro-4H-pyrazolo[4,3-c]pyridin-1-yl]-1-piperidyl]methyl]-1-piperidyl]-N-[3-(3-chloro-4-cyano-phenoxy)-2,2,4,4-tetramethyl-cyclobutyl]pyrimidine-5-carboxamide]
8 | > 100 | 1 to 100 | CC(=O)N1CCc2c(c(N3CCCc4cc(-c5cnn(C)c5)c(C(F)F)cc43)nn2C2CN(CC3CCN(c4ncc(C(=O)NC5C(C)(C)C(Oc6ccc(C#N)c(Cl)c6)C5(C)C)cn4)CC3)C2)C1 (centres unmarked) [Compound 10, 2-[4-[[3-[5-acetyl-3-[7-(difluoromethyl)-6-(1-methylpyrazol-4-yl)-3,4-dihydro-2H-quinolin-1-yl]-6,7-dihydro-4H-pyrazolo[4,3-c]pyridin-1-yl]azetidin-1-yl]methyl]-1-piperidyl]-N-[3-(3-chloro-4-cyano-phenoxy)-2,2,4,4-tetramethyl-cyclobutyl]pyrimidine-5-carboxamide]
9 | 10 to 100 | > 100 | Cn1c(=O)n(C)c2cc(-c3cccc4cc(-c5ccc(CCC6CCN(c7ncc(C(=O)NC8C(C)(C)C(Oc9ccc(C#N)c(Cl)c9)C8(C)C)cn7)CC6)nc5)ncc34)ccc21 (centres unmarked) [Compound 232, N-[3-(3-chloro-4-cyano-phenoxy)-2,2,4,4-tetramethyl-cyclobutyl]-2-[4-[2-[5-[8-(1,3-dimethyl-2-oxo-benzimidazol-5-yl)-3-isoquinolyl]-2-pyridyl]ethyl]-1-piperidyl]pyrimidine-5-carboxamide]
10 | < 1 | > 100 | CC(=O)N1CCc2c(c(N3CCCc4cc(-c5cnn(C)c5)c(C(F)F)cc43)nn2CC2CCN(c3ncc(C(=O)NC4C(C)(C)C(Oc5ccc(C#N)c(Cl)c5)C4(C)C)cn3)CC2)C1 (centres unmarked) [Compound 53, 2-[4-[[5-acetyl-3-[7-(difluoromethyl)-6-(1-methylpyrazol-4-yl)-3,4-dihydro-2H-quinolin-1-yl]-6,7-dihydro-4H-pyrazolo[4,3-c]pyridin-1-yl]methyl]-1-piperidyl]-N-[3-(3-chloro-4-cyano-phenoxy)-2,2,4,4-tetramethyl-cyclobutyl]pyrimidine-5-carboxamide]
11 | < 1 | 0.1 to 1 | CC(=O)N1CCc2c(c(N3CCCc4cc(-c5cnn(C)c5)ccc43)nn2C2CCN(CC3CCN(c4ncc(C(=O)NC5C(C)(C)C(Oc6ccc(C#N)c(Cl)c6)C5(C)C)cn4)CC3)CC2)C1 (centres unmarked) [Compound 24, 2-[4-[[4-[5-acetyl-3-[6-(1-methylpyrazol-4-yl)-3,4-dihydro-2H-quinolin-1-yl]-6,7-dihydro-4H-pyrazolo[4,3-c]pyridin-1-yl]-1-piperidyl]methyl]-1-piperidyl]-N-[3-(3-chloro-4-cyano-phenoxy)-2,2,4,4-tetramethyl-cyclobutyl]pyrimidine-5-carboxamide]
12 | < 1 | ≤ 0.1 | COc1cc(OC2C(C)(C)C(NC(=O)c3ccc(N4CCC(OC5CCC(n6nc(N7CCCc8cc(-c9cnn(C)c9)c(C(F)F)cc87)c7c6CCN(C(C)=O)C7)CC5)CC4)cc3)C2(C)C)ccc1C#N (centres unmarked) [Compound 308, 4-[4-[4-[5-acetyl-3-[7-(difluoromethyl)-6-(1-methylpyrazol-4-yl)-3,4-dihydro-2H-quinolin-1-yl]-6,7-dihydro-4H-pyrazolo[4,3-c]pyridin-1-yl]cyclohexoxy]-1-piperidyl]-N-[3-(4-cyano-3-methoxy-phenoxy)-2,2,4,4-tetramethyl-cyclobutyl]benzamide]
13 | < 1 | ≤ 0.1 | CC(=O)N1CCc2c(c(N3CCCc4cc(-c5cnn(C)c5)c(C(F)F)cc43)nn2C2CC3(CCN(C4CCN(c5ncc(C(=O)NC6C(C)(C)C(Oc7ccc(C#N)c(Cl)c7)C6(C)C)cn5)CC4)CC3)C2)C1 (centres unmarked) [Compound 373, 2-[4-[2-[5-acetyl-3-[7-(difluoromethyl)-6-(1-methylpyrazol-4-yl)-3,4-dihydro-2H-quinolin-1-yl]-6,7-dihydro-4H-pyrazolo[4,3-c]pyridin-1-yl]-7-azaspiro[3.5]nonan-7-yl]-1-piperidyl]-N-[3-(3-chloro-4-cyano-phenoxy)-2,2,4,4-tetramethyl-cyclobutyl]pyrimidine-5-carboxamide]
14 | < 1 | 0.1 to 1 | COc1cc(OC2C(C)(C)C(NC(=O)c3ccc(N4CCC(C5CN(c6ccc(-c7cc8cccc(-c9nn(C%10CCOCC%10)c%10c9CN(C(C)=O)CC%10)c8cn7)cn6)C5)CC4)cc3)C2(C)C)ccc1C#N (centres unmarked) [Compound 268, 4-[4-[1-[5-[8-(5-acetyl-1-tetrahydropyran-4-yl-6,7-dihydro-4H-pyrazolo[4,3-c]pyridin-3-yl)-3-isoquinolyl]-2-pyridyl]azetidin-3-yl]-1-piperidyl]-N-[3-(4-cyano-3-methoxy-phenoxy)-2,2,4,4-tetramethyl-cyclobutyl]benzamide]
15 | < 1 | ≤ 0.1 | COc1cc(OC2C(C)(C)C(NC(=O)c3ccc(N4CCC(N5CC6(CCC(n7nc(N8CCCc9cc(-c%10cnn(C)c%10)c(C(F)F)cc98)c8c7CCN(C(C)=O)C8)CC6)C5)CC4)cc3)C2(C)C)ccc1C#N (centres unmarked) [Compound 372, 4-[4-[7-[5-acetyl-3-[7-(difluoromethyl)-6-(1-methylpyrazol-4-yl)-3,4-dihydro-2H-quinolin-1-yl]-6,7-dihydro-4H-pyrazolo[4,3-c]pyridin-1-yl]-2-azaspiro[3.5]nonan-2-yl]-1-piperidyl]-N-[3-(4-cyano-3-methoxy-phenoxy)-2,2,4,4-tetramethyl-cyclobutyl]benzamide]

Row | SMILES | EC50 [1] [nM] | IC50 [2] [nM]
16 | CC(=O)N1CCc2c(c(Nc3ccc(-c4cnn(C)c4)cc3F)nn2C2CN(CCC3CCN(c4ncc(C(=O)NC5C(C)(C)C(Oc6ccc(C#N)c(Cl)c6)C5(C)C)cn4)CC3)C2)C1 (centres unmarked) [Compound 3, 2-[4-[2-[3-[5-acetyl-3-[2-fluoro-4-(1-methylpyrazol-4-yl)anilino]-6,7-dihydro-4H-pyrazolo[4,3-c]pyridin-1-yl]azetidin-1-yl]ethyl]-1-piperidyl]-N-[3-(3-chloro-4-cyano-phenoxy)-2,2,4,4-tetramethyl-cyclobutyl]pyrimidine-5-carboxamide] | > 100 | > 100
